Experimental data from PMC11277489, “Novel Piperazine Derivatives of Vindoline as Anticancer Agents” (International Journal of Molecular Sciences, 2024).
Where two headings read alike, the source gives them in different places.

Experiments:
[1] = test system: CAKI-1; experiment: NCI60 five-dose screen, Renal Cancer; type: cell-based; conditions: Homo sapiens
[2] = test system: LOX IMVI; experiment: NCI60 one-dose screen (10 μM), Melanoma; type: cell-based, human; conditions: Homo sapiens, LOX IMVI, read-out: Growth percent rate
[3] = test system: HCC-2998; experiment: NCI60 five-dose screen, Colon Cancer; type: cell-based; conditions: Homo sapiens
[4] = test system: NCI-H460; experiment: NCI60 five-dose screen, Non-small Cell Lung Cancer; type: cell-based; conditions: Homo sapiens
[5] = test system: MDA-MB-231/ATCC; experiment: NCI60 one-dose screen (10 μM), Breast Cancer; type: cell-based, human; conditions: Homo sapiens
[6] = test system: HS 578T; experiment: NCI60 one-dose screen (10 μM), Breast Cancer; type: cell-based; conditions: Homo sapiens, read-out: Growth percent rate
[7] = test system: OVCAR-5; experiment: NCI60 one-dose screen (10 μM), Ovarian Cancer; type: cell-based; conditions: Homo sapiens
[8] = test system: OVCAR-5; experiment: NCI60 five-dose screen, Ovarian Cancer; type: cell-based; conditions: Homo sapiens
[9] = test system: COLO 205; experiment: NCI60 one-dose screen (10 μM), Colon Cancer; type: cell-based, human; conditions: Homo sapiens
[10] = test system: CCRF-CEM; experiment: NCI60 five-dose screen, Leukemia; type: cell-based; conditions: Homo sapiens
[11] = test system: SNB-75; experiment: NCI60 five-dose screen, CNS Cancer; type: cell-based; conditions: Homo sapiens
[12] = test system: HL-60(TB); experiment: NCI60 five-dose screen, Leukemia; type: cell-based; conditions: Homo sapiens
[13] = test system: T-47D; experiment: NCI60 one-dose screen (10 μM), Breast Cancer; type: cell-based; conditions: Homo sapiens, T47D, read-out: Growth percent rate
[14] = test system: NCI-H226; experiment: NCI60 one-dose screen (10 μM), Non-small Cell Lung Cancer; type: cell-based; conditions: Homo sapiens
[15] = test system: ACHN; experiment: NCI60 five-dose screen, Renal Cancer; type: cell-based; conditions: Homo sapiens
[16] = test system: NCI/ADR-RES; experiment: NCI60 one-dose screen (10 μM), Ovarian Cancer; type: cell-based; conditions: Homo sapiens, read-out: Growth percent rate
[17] = test system: MALME-3M; experiment: NCI60 five-dose screen, Melanoma; type: cell-based; conditions: Homo sapiens
[18] = test system: DU-145; experiment: NCI60 five-dose screen, Prostate Cancer; type: cell-based; conditions: Homo sapiens
[19] = test system: SK-OV-3; experiment: NCI60 one-dose screen (10 μM), Ovarian Cancer; type: cell-based; conditions: Homo sapiens
[20] = test system: SK-OV-3; experiment: NCI60 five-dose screen, Ovarian Cancer; type: cell-based; conditions: Homo sapiens
[21] = test system: TK-10; experiment: NCI60 five-dose screen, Renal Cancer; type: cell-based; conditions: Homo sapiens
[22] = test system: IGROV1; experiment: NCI60 five-dose screen, Ovarian Cancer; type: cell-based; conditions: Homo sapiens, IGROV-1
[23] = test system: SF-539; experiment: NCI60 one-dose screen (10 μM), CNS Cancer; type: cell-based, human; conditions: Homo sapiens
[24] = test system: NCI-H23; experiment: NCI60 five-dose screen, Non-small Cell Lung Cancer; type: cell-based; conditions: Homo sapiens
[25] = test system: HCT-15; experiment: NCI60 one-dose screen (10 μM), Colon Cancer; type: cell-based; conditions: Homo sapiens
[26] = test system: SN12C; experiment: NCI60 five-dose screen, Renal Cancer; type: cell-based; conditions: Homo sapiens
[27] = test system: UO-31; experiment: NCI60 one-dose screen (10 μM), Renal Cancer; type: cell-based; conditions: Homo sapiens
[28] = test system: NCI/ADR-RES; experiment: NCI60 five-dose screen, Ovarian Cancer; type: cell-based; conditions: Homo sapiens
[29] = test system: BT-549; experiment: NCI60 one-dose screen (10 μM), Breast Cancer; type: cell-based; conditions: Homo sapiens
[30] = test system: MCF7; experiment: NCI60 five-dose screen, Breast Cancer; type: cell-based; conditions: Homo sapiens
[31] = test system: SW-620; experiment: NCI60 five-dose screen, Colon Cancer; type: cell-based; conditions: Homo sapiens
[32] = test system: UACC-62; experiment: NCI60 one-dose screen (10 μM), Melanoma; type: cell-based; conditions: Homo sapiens
[33] = test system: HOP-92; experiment: NCI60 five-dose screen, Non-small Cell Lung Cancer; type: cell-based; conditions: Homo sapiens
[34] = test system: A498; experiment: NCI60 five-dose screen, Renal Cancer; type: cell-based; conditions: Homo sapiens
[35] = test system: PC-3; experiment: NCI60 one-dose screen (10 μM), Prostate Cancer; type: cell-based; conditions: Homo sapiens
[36] = test system: NCI-H522; experiment: NCI60 five-dose screen, Non-small Cell Lung Cancer; type: cell-based; conditions: Homo sapiens
[37] = test system: T-47D; experiment: NCI60 five-dose screen, Breast Cancer; type: cell-based; conditions: Homo sapiens, T47D
[38] = test system: 786–0; experiment: NCI60 five-dose screen, Renal Cancer; type: cell-based; conditions: Homo sapiens
[39] = test system: KM12; experiment: NCI60 five-dose screen, Colon Cancer; type: cell-based; conditions: Homo sapiens
[40] = test system: OVCAR-3; experiment: NCI60 five-dose screen, Ovarian Cancer; type: cell-based; conditions: Homo sapiens
[41] = test system: RXF 393; experiment: NCI60 one-dose screen (10 μM), Renal Cancer; type: cell-based, human; conditions: Homo sapiens
[42] = test system: COLO 205; experiment: NCI60 five-dose screen, Colon Cancer; type: cell-based; conditions: Homo sapiens
[43] = test system: NCI-H226; experiment: NCI60 five-dose screen, Non-small Cell Lung Cancer; type: cell-based; conditions: Homo sapiens
[44] = test system: SR; experiment: NCI60 one-dose screen (10 μM), Leukemia; type: cell-based; conditions: Homo sapiens, read-out: Growth percent rate
[45] = Renal Cancer, five-dose screen, read-out: GI50

CC[C@]12C=CCN3CC[C@@]4(c5ccc(OC)cc5N(C)[C@H]4[C@@](O)(C(=O)OC)[C@@H]1OC(=O)CCCN1CCN(Cc4ccc(F)cc4)CC1)[C@@H]32 [Compound 24]
GI50 ([1]; CAKI-1, Renal Cancer, five-dose screen, read-out: GI50): 2.24 µM | activity at 10 µM ([2]; 10 μM, Melanoma): 5.04% | GI50 ([3]; HCC-2998, Colon Cancer, five-dose screen, read-out: GI50): 2.19 µM | GI50 ([4]; NCI-H460, Non-small Cell Lung Cancer, five-dose screen, read-out: GI50): 8.51 µM | activity at 10 µM ([5]; 10 μM, MDA-MB-231/ATCC, Breast Cancer, read-out: Growth percent rate): 51.5% | activity at 10 µM ([6]; 10 μM, HS 578T, Breast Cancer): 56.4% | activity at 10 µM ([7]; 10 μM, OVCAR-5, Ovarian Cancer, read-out: Growth percent rate): 81.2% | GI50 ([8]; OVCAR-5, Ovarian Cancer, five-dose screen, read-out: GI50): 13.8 µM | activity at 10 µM ([9]; 10 μM, COLO 205, Colon Cancer, read-out: Growth percent rate): -59.6% | GI50 ([10]; Leukemia, five-dose screen, read-out: GI50): 4.07 µM | GI50 ([11]; SNB-75, CNS Cancer, five-dose screen, read-out: GI50): 1.12 µM | GI50 ([12]; HL-60(TB), Leukemia, five-dose screen, read-out: GI50): 3.31 µM | activity at 10 µM ([13]; 10 μM, T-47D, Breast Cancer): 28.8% | activity at 10 µM ([14]; 10 μM, NCI-H226, Non-small Cell Lung Cancer, read-out: Growth percent rate): 50.2% | GI50 [15, 45]: 5.89 µM | activity at 10 µM ([16]; 10 μM, Ovarian Cancer): 42% | GI50 ([17]; MALME-3M, Melanoma, five-dose screen, read-out: GI50): 2.29 µM | GI50 ([18]; DU-145, Prostate Cancer, five-dose screen, read-out: GI50): 10.5 µM | activity at 10 µM ([19]; 10 μM, SK-OV-3, Ovarian Cancer, read-out: Growth percent rate): 70% | GI50 ([20]; SK-OV-3, Ovarian Cancer, five-dose screen, read-out: GI50): 12 µM | GI50 ([21]; TK-10, Renal Cancer, five-dose screen, read-out: GI50): 4.9 µM | GI50 ([22]; IGROV1, Ovarian Cancer, five-dose screen, read-out: GI50): 2.51 µM | activity at 10 µM ([23]; 10 μM, SF-539, CNS Cancer, read-out: Growth percent rate): 14.7% | GI50 ([24]; NCI-H23, Non-small Cell Lung Cancer, five-dose screen, read-out: GI50): 13.2 µM | activity at 10 µM ([25]; 10 μM, HCT-15, Colon Cancer, read-out: Growth percent rate): 15.7% | GI50 [26, 45]: 8.32 µM | activity at 10 µM ([27]; 10 μM, UO-31, Renal Cancer, read-out: Growth percent rate): 20.7% | GI50 ([28]; Ovarian Cancer, five-dose screen, read-out: GI50): 11.8 µM | activity at 10 µM ([29]; 10 μM, BT-549, Breast Cancer, read-out: Growth percent rate): 16.3% | GI50 ([30]; MCF7, Breast Cancer, five-dose screen, read-out: GI50): 3.98 µM | GI50 ([31]; SW-620, Colon Cancer, five-dose screen, read-out: GI50): 13.5 µM | activity at 10 µM ([32]; 10 μM, UACC-62, Melanoma, read-out: Growth percent rate): 34.7% | GI50 ([33]; HOP-92, Non-small Cell Lung Cancer, five-dose screen, read-out: GI50): 1.66 µM | GI50 ([34]; A498, Renal Cancer, five-dose screen, read-out: GI50): 12.9 µM | activity at 10 µM ([35]; 10 μM, PC-3, Prostate Cancer, read-out: Growth percent rate): 12.9% | GI50 ([36]; NCI-H522, Non-small Cell Lung Cancer, five-dose screen, read-out: GI50): 13.8 µM | GI50 ([37]; T-47D, Breast Cancer, five-dose screen, read-out: GI50): 5.62 µM | GI50 ([38]; 786–0, Renal Cancer, five-dose screen, read-out: GI50): 6.31 µM | GI50 ([39]; KM12, Colon Cancer, five-dose screen, read-out: GI50): 10.5 µM | GI50 ([40]; OVCAR-3, Ovarian Cancer, five-dose screen, read-out: GI50): 10.7 µM | activity at 10 µM ([41]; 10 μM, RXF 393, Renal Cancer, read-out: Growth percent rate): -8.13% | GI50 ([42]; COLO 205, Colon Cancer, five-dose screen, read-out: GI50): 1.95 µM | GI50 ([43]; NCI-H226, Non-small Cell Lung Cancer, five-dose screen, read-out: GI50): 10.5 µM | activity at 10 µM ([44]; 10 μM, Leukemia): 4.82%

CC[C@]12C=CCN3CC[C@@]4(c5ccc(OC)cc5N(C)[C@H]4[C@@](O)(C(=O)OC)[C@@H]1OC(=O)CCCN1CCN(C(c4ccc(F)cc4)c4ccc(F)cc4)CC1)[C@@H]32 [Compound 25]
GI50 ([1]; CAKI-1): 1.48 µM | activity at 10 µM [2]: -98.8% | GI50 ([3]; HCC 2998): 1.66 µM | GI50 ([4]; NCI-H460): 1.78 µM | activity at 10 µM ([5]; MDA-MB-231, read-out: Growth percent rate): -94% | activity at 10 µM ([6]; Hs-578T): -60% | activity at 10 µM ([7]; OVCAR-5, read-out: Growth percent rate): -92% | GI50 ([8]; OVCAR-5): 1.66 µM | activity at 10 µM ([9]; COLO 205, read-out: Growth percent rate): -78.5% | GI50 [10]: 2.04 µM | GI50 ([11]; SNB-75): 5.01 µM | GI50 ([12]; HL-60): 1.55 µM | activity at 10 µM [13]: -64.6% | activity at 10 µM ([14]; NCI-H226, read-out: Growth percent rate): -74.8% | GI50 [15]: 2.09 µM | activity at 10 µM [16]: -80.8% | GI50 ([17]; Malme-3M): 1.51 µM | GI50 ([18]; DU-145): 1.78 µM | activity at 10 µM ([19]; SK-OV-3, read-out: Growth percent rate): -72.5% | GI50 ([20]; SK-OV-3): 1.55 µM | GI50 ([21]; TK-10): 1.51 µM | GI50 [22]: 1.38 µM | activity at 10 µM ([23]; SF-539, read-out: Growth percent rate): -98.5% | GI50 ([24]; NCI-H23): 1.91 µM | activity at 10 µM ([25]; HCT-15, read-out: Growth percent rate): -96.6% | GI50 [26]: 1.66 µM | activity at 10 µM ([27]; UO-31, read-out: Growth percent rate): -97.8% | GI50 [28]: 1.74 µM | activity at 10 µM ([29]; BT-549, read-out: Growth percent rate): -92.4% | GI50 ([30]; MCF7): 1.7 µM | GI50 ([31]; SW-620): 1.62 µM | activity at 10 µM ([32]; UACC-62, read-out: Growth percent rate): -92.5% | GI50 ([33]; HOP-92): 1.35 µM | GI50 ([34]; A498): 5.25 µM | activity at 10 µM ([35]; PC-3, read-out: Growth percent rate): -72.3% | GI50 ([36]; NCI-H522): 1.7 µM | GI50 [37]: 1.66 µM | GI50 ([38]; 786-0): 1.58 µM | GI50 ([39]; KM12): 1.78 µM | GI50 ([40]; OVCAR-3): 1.74 µM | activity at 10 µM ([41]; RXF 393, read-out: Growth percent rate): -94.5% | GI50 ([42]; COLO 205): 1.66 µM | GI50 ([43]; NCI-H226): 2.04 µM | activity at 10 µM [44]: -43.6%
